The target in one test is T1, FtsZ (Mycobacterium tuberculosis, UniProt P9WN95).
T1 sequence (P9WN95 1-379): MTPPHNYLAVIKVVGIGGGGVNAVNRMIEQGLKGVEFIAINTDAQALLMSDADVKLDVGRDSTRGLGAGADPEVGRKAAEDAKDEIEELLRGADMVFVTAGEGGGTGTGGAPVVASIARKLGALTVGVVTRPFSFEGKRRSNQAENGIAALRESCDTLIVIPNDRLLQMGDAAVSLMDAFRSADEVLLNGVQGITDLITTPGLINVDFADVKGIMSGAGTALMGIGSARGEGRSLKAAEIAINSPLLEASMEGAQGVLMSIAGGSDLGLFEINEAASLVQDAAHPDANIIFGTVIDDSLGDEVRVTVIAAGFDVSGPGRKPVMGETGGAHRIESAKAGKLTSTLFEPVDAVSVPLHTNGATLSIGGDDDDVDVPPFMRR
Briefly: thermal shift assay. The test is classed as binding. The settings on record: read-out: thermal shift (dTm) at 100 μM, 16 h.

Another test deals with PheRS (Mycobacterium tuberculosis, UniProt P9WFU3). Nature of the test: ATP consumption assay. The test is classed as biochemical.
Chain of PheRS (P9WFU3 whole entry): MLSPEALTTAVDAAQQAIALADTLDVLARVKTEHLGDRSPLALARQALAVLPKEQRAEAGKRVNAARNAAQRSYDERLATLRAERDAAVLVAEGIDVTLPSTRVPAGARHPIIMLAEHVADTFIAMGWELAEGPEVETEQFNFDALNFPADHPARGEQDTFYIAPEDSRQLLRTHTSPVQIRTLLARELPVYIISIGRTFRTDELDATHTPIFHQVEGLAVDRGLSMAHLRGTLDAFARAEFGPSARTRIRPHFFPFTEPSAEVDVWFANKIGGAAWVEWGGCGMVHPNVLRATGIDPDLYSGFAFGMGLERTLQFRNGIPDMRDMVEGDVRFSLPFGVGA
Chain of PheRS (P9WFU1 whole entry partner): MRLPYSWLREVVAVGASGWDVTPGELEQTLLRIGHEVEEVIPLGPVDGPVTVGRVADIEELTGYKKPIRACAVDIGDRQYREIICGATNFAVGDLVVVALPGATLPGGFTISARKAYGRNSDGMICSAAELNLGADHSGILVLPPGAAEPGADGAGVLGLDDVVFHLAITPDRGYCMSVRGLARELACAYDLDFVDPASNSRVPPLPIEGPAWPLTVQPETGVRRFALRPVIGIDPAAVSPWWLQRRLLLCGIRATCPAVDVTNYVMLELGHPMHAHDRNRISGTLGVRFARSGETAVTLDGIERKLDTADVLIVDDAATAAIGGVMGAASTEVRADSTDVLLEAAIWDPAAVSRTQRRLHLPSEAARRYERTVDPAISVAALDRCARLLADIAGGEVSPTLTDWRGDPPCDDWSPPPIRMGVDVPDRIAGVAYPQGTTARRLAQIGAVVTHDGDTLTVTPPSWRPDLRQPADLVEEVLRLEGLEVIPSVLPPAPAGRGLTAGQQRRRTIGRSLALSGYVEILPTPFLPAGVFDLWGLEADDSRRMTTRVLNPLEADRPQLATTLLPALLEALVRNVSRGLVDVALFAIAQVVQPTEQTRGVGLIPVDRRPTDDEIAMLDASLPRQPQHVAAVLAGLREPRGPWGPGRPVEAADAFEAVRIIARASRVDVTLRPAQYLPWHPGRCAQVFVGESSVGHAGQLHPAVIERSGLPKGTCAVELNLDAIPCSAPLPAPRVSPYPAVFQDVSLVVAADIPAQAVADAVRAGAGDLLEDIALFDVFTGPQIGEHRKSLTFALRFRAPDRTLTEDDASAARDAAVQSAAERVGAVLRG

This is an account of results in paper doi:10.1101/2025.04.28.650819v3 (biorxiv, 2025).

Consider `CC(=O)Nc1cc(Nc2cc(NC3CC3)n3ncc(C#N)c3n2)ccc1N(C)CC(=O)Nc1cccc(C(F)(F)F)c1` [GDI-10996], for which the ΔTm at 100 µM at FtsZ was determined as 1.25 °C. Consider `O=C(Nc1cccc(-c2nn[nH]n2)c1)c1ccc2nc(-c3ccccc3)[nH]c2c1` [GDI-10928], for which the ΔTm at 100 µM at FtsZ was 1.84 °C. At PheRS, this compound had an IC50 of 120 µM.

By IC50 is commonly meant the point on the concentration scale where inhibition reaches its midpoint. The low end stands for greater potency in that assay, the high end for weaker potency in that assay.
